In ChEMBL document CHEMBL1132074, “Potent and selective bicyclic lactam inhibitors of thrombin: Part 3: P1' modifications” (Bioorg Med Chem Lett, 1999):

How the values were obtained:
[1] = target: Prothrombin (Homo sapiens, UniProt P00734); experiment: Inhibition of human Thrombin
[2] = target: T1, Serine protease 1 (Homo sapiens, UniProt P07477); experiment: In vitro inhibitory activity against human trypsin
[3] = target: T1, Serine protease 1; experiment: In vitro inhibitory activity against human trypsin at 100 uM

T1 sequence (P07477 whole entry): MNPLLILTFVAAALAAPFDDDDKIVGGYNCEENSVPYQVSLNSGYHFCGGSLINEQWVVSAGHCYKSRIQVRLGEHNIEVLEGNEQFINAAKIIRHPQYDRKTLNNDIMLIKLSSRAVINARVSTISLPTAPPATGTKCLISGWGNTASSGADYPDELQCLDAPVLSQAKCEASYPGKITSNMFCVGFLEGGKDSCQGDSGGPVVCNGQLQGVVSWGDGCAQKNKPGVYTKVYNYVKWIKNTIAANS

Compound | IC50 [1] | IC50 [2] | inhibition [3]
N=C(N)NCCC[C@H](NC(=O)[C@@H]1CC[C@H]2CN(C(=O)CCc3ccccc3)CC(=O)N21)C(=O)c1nccs1 | – | < 0.001 µM | –
N=C(N)NCCC[C@H](NC(=O)[C@@H]1CC[C@H]2CN(C(=O)CCc3ccccc3)CC(=O)N21)C(=O)c1nc2c(s1)CCC2 | 0.018 µM | 0.002 µM | –
N=C(N)NCCC[C@H](NC(=O)[C@@H]1CC[C@H]2CN(C(=O)CCc3ccccc3)CC(=O)N21)C(=O)c1nc2ccccc2s1 | < 0.001 µM | < 0.001 µM | –
Cc1csc(C(=O)C(CCCNC(=N)N)NC(=O)[C@@H]2CC[C@H]3CN(C(=O)CCc4ccccc4)CC(=O)N32)n1 (some centres not stated) | 0.044 µM | 0.024 µM | –
Cc1nc(C(=O)[C@H](CCCN=C(N)N)NC(=O)[C@@H]2CC[C@H]3CN(C(=O)CCc4ccccc4)CC(=O)N32)sc1CCO | 0.015 µM | 0.012 µM | –
Cn1ccnc1C(=O)[C@H](CCCNC(=N)N)NC(=O)[C@@H]1CC[C@H]2CN(C(=O)CCc3ccccc3)CC(=O)N21 | 2.37 µM | 27.4 µM | –
N=C(N)NCCC[C@H](NC(=O)[C@@H]1CC[C@H]2CN(C(=O)CCc3ccccc3)CC(=O)N21)C(=O)c1ccccn1 | 0.34 µM | 0.16 µM | –
Cn1c(C(=O)[C@H](Cc2cccc(C(=N)N)c2)NC(=O)[C@@H]2CC[C@H]3CN(C(=O)CCc4ccccc4)CC(=O)N32)nc2ccccc21 | 0.45 µM | 18.7 µM | –
NCCCC[C@H](NC(=O)[C@@H]1CC[C@H]2CN(C(=O)CCc3ccccc3)CC(=O)N21)C(=O)c1nccs1 | 0.077 µM | 0.014 µM | –

Further lines, results first:

IC50 [1] | IC50 [2] | inhibition [3] | Compound
< 0.001 µM | 0.59 µM | – | N=C(N)N1CCCC(C[C@H](NC(=O)[C@@H]2CC[C@H]3CN(C(=O)CCc4ccccc4)CC(=O)N32)C(=O)c2nc3ccccc3s2)C1 (some centres not stated)
0.051 µM | 3.36 µM | – | Cn1c(C(=O)[C@H](CCCNC(=N)N)NC(=O)[C@@H]2CC[C@H]3CN(C(=O)CCc4ccccc4)CC(=O)N32)nc2ccccc21
0.057 µM | 0.97 µM | – | N=C(N)c1cccc(CC(NC(=O)[C@@H]2CC[C@H]3CN(C(=O)CCc4ccccc4)CC(=O)N32)C(=O)c2nc3ccccc3s2)c1 (some centres not stated)
2.05 µM | 8.49 µM | – | Cn1c(C(=O)[C@H](CCCCN)NC(=O)[C@@H]2CC[C@H]3CN(C(=O)CCc4ccccc4)CC(=O)N32)nc2ccccc21
0.75 µM | – | 40% | Cn1c(C(=O)[C@H](CC2CCCN(C(=N)N)C2)NC(=O)[C@@H]2CC[C@H]3CN(C(=O)CCc4ccccc4)CC(=O)N32)nc2ccccc21 (some centres not stated)
